The source of these data is patent publication US20240300935A1, “Nitrogen Oxide Donors of Beraprost Derivative and the Pharmaceutical Compositions with the Use Thereof” (GUANGZHOU KEMROCMED CO., LTD., priority 2021, published 2024).

Assay [1] is described as follows: In vitro NO release test (Griess method). As to conditions: 200 μM test compound solution mixed with 200 μM L-cysteine solution, 37° C. As for the experimental part:
NO was transiently oxidized in aqueous solution using released NO by Griess' method, NO^2− And Griess reagent form a complex, which has strong UV uptake at 540 nm to determine the amount of NO released by the compound. • 1) Preparation of solution: blank solution: 10 mL DMSO and 190 m L PBS mixed; G riess Reagent: sulfonamide (4.0 g), N-(1-naphthalyl) ethylenediamine dihydrochloride (0.2 g) and 10 mL 85% H3PO4 dissolved in 90 mL of distilled water, Blow until clear solution; L-cysteine solution: after accurate weighing of L-cysteine, Add a certain amount of PBS, Prepare a weighed 200 μM solution; Test compound solution: the exact weighing of the test compound, Dissolved in D MSO and diluted to a concentration of 1 mM, Then, when diluted in PBS, To a concentration of 200 μM.
2) Formulation of standard curve equation: prepare sodium nitrite solution concentration: 0 ,0 , 1, 3, 6, 12.5, 25, 50, 100 μmol/L, 150 μL of each concentration, add 50 μL of Griess reagent mix, incubated in 37° C. constant temperature shaker for 30 min, the plate reader measured each tube absorbance at 540 nm, after subtracting the blank solution reading, the standard curve equation . . . 78.56.13.25 • 3) Test compound test: mix 2 mL of the test compound solution and L-cysteine solution, incubate in 37° C. constant temperature shakers for 120 min, take 150 μL of each mixture, add 50 μL of Griess reagent, then incubate in 37° C. constant temperature shaker for 30 min, the microplate measured each tube absorbance at 540 nm, then subtract the blank solution reading and substitute the value into the standard curve equation to obtain NO release.

The subject of assay [2] is rats with hypoxic pulmonary hypertension. Description: In vivo test in rats with hypoxic pulmonary hypertension. The settings on record: SD male rats, low pressure low oxygen chamber, 5 mg/kg, after four weeks, vs model group. Also on record: species or system rat. The procedure:
• 1) Experimental instruments and materials, HX-200 animal ventilator, and SD male rats used in the experiment were all purchased from Yangzhou University. All control groups were reared in a normal environment, and the administration intervention and model groups were reared in the low pressure low oxygen chamber (air pressure 50 kPa, oxygen concentration 10%). • 2) Compound 15 was dissolved using DMSO/solutol/water (10/10/80). In the intervention group, the dose was 5 mg/kg, all rats were weighed weekly, survival was recorded, and pulmonary artery pressure was measured after four weeks. Rats (3 ml/kg) were anesthetized with chloral hydrate (100 g/L), fixed in the supine position, tracheotomy, and breathing assisted with a small animal ventilator (frequency 60 beats/min, 5 ml, breath ratio 4:5). Free the left third rib, a catheter connecting one end to the tension transducer was sent to the pulmonary artery, and the mean pulmonary artery pressure (mP AP) was recorded through the BL-420E Biofunction experimental system. […] The results of FIG. 1 show the effect of beraprost derivative compound 15.

Assay [3] has as its system postmenopausal osteoporosis mouse model. The experiment in a line: Therapeutic effect of osteoporosis, postmenopausal osteoporosis mouse model (ovariectomy). It is filed as in vivo. The arrangement: Tb · N: unit not given here. The text has this:
• 1) Test materials; 1. Animal clean grade C57BL/6 strain, 8-10 weeks old not pregnant females were purchased from Yangzhou University. 2. Main reagents and instruments, Bujiale (estradiol valerate tablets, Bayer); mouse osteocalcin (osteocalcin, OC) enzyme-linked immunotest kit, alkaline phosphatase (alkaline phosphatase, ALP) test kit, tartrate acid phosphatase (StrACP) test kit (all the above kits were purchased in Nanjing). Dual-energy X-ray bone densitometer (HOLOGIC); ECLIPSE 50i microscope (Nikon); MUTISKANMK3 microplate reader (Thermo); tissue slicing equipment (including KD-TS3D1 biological tissue automatic dehydrmachine (Zhejiang Cody), TB-718 biological tissue automatic embedding machine (Hubei), R138 rotary slicer (Hubei), TK-212 automatic constant temperature drift instrument (Hubei), TK-213 automatic constant temperature dryer (Hubei), etc.). • 2) Test method: A animals were grouped, and the random method divided the female mice into 4 groups, namely, sham operation group, model group, positive drug group, and test drug group. B Preparation of postmenopausal osteoporosis mouse model, chloral hydrate anesthesia and removed the ovaries in the lying position. In the sham group, only the same volume of fat tissue near the ovaries was removed. Vaginal smear was performed on days 4-8 after ovariectomy to determine if the ovariectomy was complete. Method of c, on the third day after the operation, positive control drug (0.1 mL/10 g gavage), equal volume of 0.9%sodium chloride solution in sham group and model group, continuous gavage for 28 d. Test ResResults test: Blood and bone tissue samples after day 28. The following indicators were tested: (1) determination of bone density, lumbar L4-6 measurement of bone density by double energy X-ray bone density instrument. (2) Observation of bone tissue and morphology, the bone tissue and morphology changes were observed by tibial HE staining, mainly testing the trabecular volume ratio (bone volume/tissue volume, BV/TV) and the number of trabecular bone (trabecular bone number, Tb. N) and trabecular separation (trabecular separation, Tb. And sp) were the quantitative evaluation index. (3) For the determination of biological indicators ALP, StrACP, OC, and E 2 in mouse serum, blood was collected by enucleation method, and by kit and enzyme-linked adsorption assay.

Assay [4] concerns renal tubular epithelial cells in acute renal failure. The experiment in a line: Renal tubular protective effect of acute renal failure (co-culture with isolated cells). It is filed as cell-based, rat. As to conditions: renal tubular epithelial cells from acute renal failure rats, 200 μg/mL. An excerpt: • 1) Test materials, glycerol (MacLean Company); CCK-8 kit, Annexin V-PE cell apoptosis detection kit, superoxide dismutase activity detection kit, malondialdehyde detection kit (Biyun Biotech); first anti-cysteine aspartate protease, caspase 3 and 9, B lymphocytoma-2 gene, Bcl-2-associated X protein (BAX, anti-rabbit), TGF-β 1, smad 3 (abcam, USA). Protein gel imager, microplate reader, and flow cytometer (Beckman Coulter, Type CytoFLEX). Clean-grade SD rats were purchased from Yangzhou University. • 2) Test method, the model of acute renal failure of rat hind limb injection was used. After 24 h, the level of BUN and Cr increased in rat serum, vascular necrosis of renal interstitium, and inflammatory cell infiltration were regarded as successful model establishment. Some renal tissues from model animals were taken for in vitro culture, renal tubular epithelial cells were isolated and identified, and test drug co-culture (0-24 hours) was added. Changes of various biochemical indicators and apoptosis were determined. […] Conclusion Test compounds can promote tubular epithelial cells proliferation, inhibit apoptosis, inhibit oxidative stress, and slow the damage of renal tubular epithelial cells by inhibiting the expression of proapoptotic proteins.

The subject of assay [5] is platelet aggregation induced by ADP. The experiment in a line: Antiplatelet aggregation effect, ADP-induced, turbidimetry in platelet-rich plasma. The settings on record: Homo sapiens, 2 min; platelet rich plasma of healthy subjects; 25 μL of 50 nM compound solution in 225 μL plasma, 37° C. 2 min; ADP final 2 μM; read-out: The rate of platelet aggregation inhibition. The format is cell-based. As for the experimental part: • 1) Experimental material: ADP, epinephrine, collagen (bilBio) • 2) Experimental method: blood samples provided by healthy subjects were mixed blood with 3.8% citric acid solution and centrifuged at 160 r/min to obtain platelet-rich plasma. To calibrate the data, the obtained platelet-rich plasma was further centrifuged at 2000 r/min to obtain platelet-poor plasma, stored in a −20° C. refrigerator. Testing was performed using Born I's turbiometry. 225 μL of platelet rich plasma was added to the reaction cup, the embodiment compound was configured as 50 nM solution (25 m M Tris-acetate and 120 m M N a Cl), 25 μL of embodiment compound solution was added and after incubation at 37° C. for 2 min, 5 μL of ADP (final concentration 2 μM) was added for platelet aggregation induction. To assess the degree of platelet aggregation, the maximum absorbance value took the data after ADP, thus calculating the inhibition rate of ADP-induced platelet aggregation by each embodiment compound. According to the data in Table 6 below, the compounds of the present application embodiment all have a good effect of inhibiting the platelet aggregation induced by ADP.

Where [6] appears, read: tibial HE staining, ovariectomised C57BL/6 mice, gavage 28 d.

As for `CC#CCC(C)[C@@H](O)/C=C/[C@H]1[C@@H]2c3cccc(CCCC(=O)OCC4CCCC(CO[N+](=O)[O-])C4)c3O[C@@H]2C[C@@H]1O` (some centres unmarked) [Compound 15], the “120 min NO^2−” value in assay [1] worked out at 12.7 µM. For the same compound, the “mean pulmonary artery pressure (mPAP)” value in assay [2] was “lower compared with the model group”. In addition, in assay [3] (mouse serum, day 28), the ALP is reported as 19 ± 2.2 King-Armstrong unit/100 mL, the E2 turned out to be 35 ± 4 ng/mL, the OC was found to be 1.7 ± 0.2 ng/mL and the “Str ACP” value worked out at 41 ± 3.6 U/L. For the same compound, in assay [3] (setting [6]), the BV/VT is reported as 0.29 ± 0.05, the “Tb · N” value was 7.5 ± 0.6 and the “Tb · sp” value worked out at 152 ± 15 μm. Further, in assay [4], the “B AX protein level” value was determined as 0.32 ± 0.12, the “B CL2 protein level” value is reported as 0.56 ± 0.11, the MDA is listed as 489 ± 38 Nnol/g protein and the “S mad3 protein level” value amounted to 0.19 ± 0.07. In assay [4], the SOD is on record as 1016 ± 117 U/g egg white, the “T GF-β1 protein level” value came to 0.24 ± 0.05, the “The rate of apoptosis” value is reported as 9 ± 0.7% and the caspase3 protein level is 0.28 ± 0.06. For the same compound, the caspase9 protein level in assay [4] is given as 0.48 ± 0.1. Further, the inhibition (as a rule, the change of the read-out against control, counted positive when it falls) at 0.005 µM in assay [5] came out at 92%.
With `CC#CCC(C)[C@@H](O)/C=C/[C@H]1[C@@H]2c3cccc(CCCC(=O)OCCCOC(=O)CCO[N+](=O)[O-])c3O[C@@H]2C[C@@H]1O` (some centres unmarked) [Compound 18], the “120 min NO^2−” value in assay [1] is 8.0 µM. The inhibition at 0.005 µM in assay [5] stood at 66%.
Regarding `CC#CCC(C)[C@@H](O)/C=C/[C@H]1[C@@H]2c3cccc(CCCC(=O)OCCCCOC(=O)CO[N+](=O)[O-])c3O[C@@H]2C[C@@H]1O` (some centres unmarked) [Compound 23], in assay [1], the “120 min NO^2−” value amounted to 15.5 µM. The inhibition at 0.005 µM in assay [5] is 56%.
For `CC#CCC(C)[C@@H](O)/C=C/[C@H]1[C@@H]2c3cccc(CCCC(=O)OCCOC(=O)CO[N+](=O)[O-])c3O[C@@H]2C[C@@H]1O` (some centres unmarked) [Compound 17] the same measures were 7.6 µM and 59%.
Consider `CC#CCC(C)[C@@H](O)/C=C/[C@H]1[C@@H]2c3cccc(CCCC(=O)OCOCCO[N+](=O)[O-])c3O[C@@H]2C[C@@H]1O` (some centres unmarked) [Compound 6], for which the “120 min NO^2−” value in assay [1] amounted to 17.8 µM. In addition, in assay [5], the inhibition at 0.005 µM was 39%.
For `CC#CCC(C)[C@@H](O)/C=C/[C@H]1[C@@H]2c3cccc(CCCC(=O)OCCCOC(=O)CCCO[N+](=O)[O-])c3O[C@@H]2C[C@@H]1O` (some centres unmarked) [Compound 22] the same measures were 13.7 µM and 52%.
